“And” between values parts separate entries of the source, which are not always exact repeats. Equal values may be shown once. Read-outs that look alike come from different tables or passages of the source. Marks after values point to notes of the source that are not given here.
Key:
[1] = tested on: PC-3 (prostate carcinoma) cells; assay: cells; format: cell-based, human
Procedure: (§1) Adherent cells, LNCaP (prostate carcinoma), HT-29 (colon carcinoma) and PC-3 (prostate carcinoma), were cultured in DMEM media containing 10% heat inactivated fetal calf serum (FCS). On the day of the study the cells were detached from the plate with a trypsin solution. The collected cells were washed and resuspended at a concentration of 0.25×10^6 cells/ml in DMEM containing 10% FCS. 100 μl of cell suspension were added to 96 well plates and the plates were incubated for 3 hours to allow the cells to adhere. […] The plates were then incubated for 24 hours, pulsed with 10 μl of a 100 μCi/ml ^3H-thymidine and incubated for an additional 24 hours (total incubation time 48 hours). The plates were harvested using a 96 well Harvester (Packard Instruments) and counted on a Packard Top Count Counter. Four parameter logistic curves were fitted to the ^3H-thymidine incorporation as a function of drug molarity using Prism software to determine IC50 values.
as §1, with “carcinoma), PC-3 (prostate” for “carcinoma), HT-29 (colon”, “and 22 RV1” for “and PC-3”, “with 1:0” for “with 10”

[2] = tested on: LNCaP cell homogenate; assay: Hydrolysis by cultured human cell homogenates; format: biochemical
Procedure: (§2) In addition, 1 μM phosphoramidon, a CD10 inhibitor was included in incubations with LNCaP cell homogenate. To estimate specific activity protein content was estimated in the soluble portion of the homogenates. Results expressed as protein specific activity (FIG. 12) indicate that LNCaP cells which are known to contain CD10 show the greatest Suc-Ile-Ala-Leu-Dox hydrolyzing activity.

[3] = tested on: PC-3 cell homogenate; assay: Hydrolysis by cultured human cell homogenates; format: biochemical; conditions: 12.5 μg/mL, up to 1 hr, 37° C., pH 7.2
Procedure: as §2

[4] = mouse, in vivo, iv, 100 umol/kg
Procedure: Plasma was obtained from three individual animals in each group at 5 minutes, 1, 2, 4, or 6 hr.

[5] = tested on: LNCaP human prostate carcinoma xenografts
Procedure: LNCaP human prostate carcinoma cells express high levels of CD10 on the surface. Suc-βAla-Leu-Ala-Leu-Dox and Suc-Leu-Ala-Gly-Dox were tested at a single dose level Q7Dx5. […] The mice were weighed and tumors were measured (by caliper) at least once a week prior to start of dosing (Day 0), then twice a week during the study. Immediately before the start of dosing (Study Day −2 to Day 0), mice were randomized to various groups based on the weight of the tumors. […] Mice were euthanized after the tumors reached a cutoff weight of 1.5 g (cancer endpoint), or when mice suffered over 25% weight loss (toxic endpoint). Studies were terminated at Day 60.

[6] = tested on: prostate carcinoma LNCaP tumors; conditions: for mean tumor weight of all mice when terminated: calculated, not shown; for Cancer Endpt.: tumor 1.5 g
Procedure: The mice were weighed and tumors were measured (by caliper) at least once a week prior to start of dosing (Day 0), then twice a week during the study. Immediately before the start of dosing (Study Day −2 to Day 0), mice were randomized to various groups based on the weight of the tumors. […] Mice were euthanized after the tumors reached a cutoff weight of 1.5 g (cancer endpoint), or when mice suffered over 25% weight loss (toxic endpoint). Studies were terminated at Day 60.

[7] = Repeat-dose MTD in tumor bearing mice; format: in vivo; conditions: mouse, in vivo
Procedure: (§3) In repeat-dose studies in tumor bearing mice, groups of ten mice were dosed with various amounts of prodrug for a total of five doses at either five day or 1 week intervals. […] Thus, the conclusion remains the same in that the prodrugs permit a much greater amount of therapeutic agent to be delivered to the body as a whole and to the vicinity of the target cell.
(§4) As would be expected, when a dose similar to the single-dose MTD (75 mg/kg) (See Example 16) was administered as a repeat-dose it was less well tolerated. […] All treated animals lost weight progressively throughout the study, while the vehicle control group gained up to 12% of the mean initial body weight. (FIG. 20). Two treated animals in the high dose group were terminated due to signs of toxicity, with body weight loss of greater that 20% of their initial weight. […] Thus cumulative toxicity resulted from repeat-dosing at these relatively high dose-levels.

[8] = tested on: LS174t tumor bearing mice; assay: Repeat-dose MTD in tumor bearing mice; format: in vivo
Procedure: as §3, §4

[9] = tested on: CD10 transfected CHO cells, Clone #8; assay: 3H thymidine proliferation assay, CD10 transfected CHO Clone #8
Procedure: The fully assembled coding region was sub-cloned into a mammalian expression vector, downstream of the hCMV-MIE promoter. DNA sequence analysis confirmed sequence identity with the coding sequence of human CD10 (Genbank accession number Y00811). The expression plasmid was linearized and stably transfected into CHO—S cells. CD10 expressing transfectant clones were selected under 500 ug/mL of hygromycin and screened by flow cytometry for cell-surface CD10 expression using a commercially available anti-CD10-FITC antibody.

[10] = tested on: normal mice; conditions: mouse, in vivo; cited from earlier work
[11] = tested on: human colon carcinoma (HT-29) xenograft; conditions: 4.0 mg/kg every 7 days for 5 doses
Source text: Healthy young male nude mice were subcutaneously injected with 5 million of HT-29 cells.

[12] = Dose 75 mg/kg (Table 19), Q7DX5

SMILES: CC[C@H](C)[C@H](NC(=O)CCC(=O)O)C(=O)N[C@@H](C)C(=O)N[C@@H](CC(C)C)C(=O)N[C@H]1C[C@H](O[C@H]2C[C@](O)(C(=O)CO)Cc3c(O)c4c(c(O)c32)C(=O)c2c(OC)cccc2C4=O)O[C@@H](C)[C@H]1O [Suc-Ile-Ala-Leu-Dox]
- IC50 ([1]; 48 hours total incubation, read-out: IC50 PC-3): 88000 nM
- hydrolyzing activity (protein specific activity) ([2]; LNCaP cell homogenate with 1 μM phosphoramidon): inhibited by phosphoramidon
- hydrolyzing activity (protein specific activity) ([2]; LNCaP cell homogenate, 12.5 μg/mL, up to 1 hr, 37° C., pH 7.2): greatest
- hydrolysis by homogenate [3]: not

SMILES: COc1cccc2c1C(=O)c1c(O)c3c(c(O)c1C2=O)C[C@@](O)(C(=O)CO)C[C@@H]3O[C@H]1C[C@H](NC(=O)[C@H](CC(C)C)NC(=O)[C@H](C)NC(=O)[C@H](CC(C)C)NC(=O)CCNC(=O)CCC(=O)O)[C@H](O)[C@H](C)O1 [Suc-βAla-Leu-Ala-Leu-Dox]
- Plasma AUC0-6 hr of AL-Dox or AG-Dox* [4]: 3.2 µM·h
- Plasma AUC0-6 hr of L-Dox or G-Dox* [4]: 40 µM·h
- Tumor Growth Inhibition (% over control) D14 [5, 12]: D14: 53.4** %
- Tumor Growth Inhibition (% over control) D21 [5, 12]: D21: 66.2** %
- Tumor Weight (mg) D14 [5, 12]: D14: 391 ± 70 (n = 7) mg
- Tumor Weight (mg) D21 [5, 12]: D21: 318 ± 67 (n = 7) mg
- Toxicity (Weight Loss >25%) ([5]; Dose 75 mg/kg (Table 19), Q7DX5, mice affected/total): 7/7
- mean tumor weight of all mice when terminated ([6]; 59 mg/kg Q7DX5): 232 mg
- Toxic Endpt. ([6]; 59 mg/kg Q7DX5, over 25% weight loss): 7 of 7 and 7
- Cancer Endpt. ([6]; 59 mg/kg Q7DX5): 0
- % Tumor Growth Inhibition D14 ([6]; 59 mg/kg i.v. Q7DX5): D14: 53 ± 15 %
- % Tumor Growth Inhibition D21 ([6]; 59 mg/kg i.v. Q7DX5): D21: 66 ± 15 %
- Survivor (day 60) ([6]; 59 mg/kg i.v. Q7DX5): 0
- Tumor Weight D14 ([6]; 59 mg/kg i.v. Q7DX5): D14: 391 ± 70
- Tumor Weight D21 ([6]; 59 mg/kg i.v. Q7DX5): D21: 318 ± 67

SMILES: CC[C@H](C)[C@H](NC(=O)CCNC(=O)CCC(=O)O)C(=O)N[C@@H](C)C(=O)N[C@@H](CC(C)C)C(=O)N[C@H]1C[C@H](O[C@H]2C[C@](O)(C(=O)CO)Cc3c(O)c4c(c(O)c32)C(=O)c2c(OC)cccc2C4=O)O[C@@H](C)[C@H]1O [Suc-βAla-Ile-Ala-Leu-Dox]
- MTD ([7]; total of 5 doses, read-out: RD-MTD as total exposure after 5 doses): ~150 mg/kg
- animals terminated due to signs of toxicity ([8]; 68 mg/kg Q5DX5, groups of ten): Two
- IC50 difference to Dox ([9]; CD10 transfected CHO cells): ~16 fold
- Ratio Suc-β-Ala-Ile-Ala-Leu/Dox ([9]; Clone #8, ratio of IC50): 15

SMILES: COc1cccc2c1C(=O)c1c(O)c3c(c(O)c1C2=O)C[C@@](O)(C(=O)CO)C[C@@H]3O[C@H]1C[C@H](N)[C@H](O)[C@H](C)O1 [Doxorubicin, reference compound]
- MTD at 60 days ([7]; Q 7D × 5, tumor bearing mice): 4 mg/kg
- Repeat Dose MTD, doxorubicin equivalent dose (in parentheses) ([8]; Q 7D × 5): 4 (4) mg/kg
- RD-MTD as total exposure after 5 doses ([8]; total of 5 doses): 20 mg/kg doxorubicin equivalent
- IC50 ([9]; Cricetulus griseus, CHO, read-out: IC50 Clone #8): 570 nM
- MTD of doxorubicin alone, estimated from the standard safe efficacious dose [10]: 4 mg/kg
- IC50 ([1]; Homo sapiens, PC-3, 48 hours total incubation, read-out: IC50 PC-3): 75 nM
- IC50 ([1]; Homo sapiens, PC-3, Table 6, 48 hours, read-out: IC50 PC-3 CD10−PSA−): 40 nM
- Tumor Growth Inhibition (% over control) ([5]; Dose 5 mg/kg, Q7DX5): 32.5%
- Tumor Weight (mg) D14 ([5]; Dose 5 mg/kg, Q7DX5): D14: 567 ± 77 (n = 6) mg
- Toxicity (Weight Loss >25%) ([5]; male, NCr nude, mouse, in vivo, 5 mg/kg, 60 days): 4/6
- % TGI (Day 14, mean) [11]: 9.3%
- % TGI (Day 25, median) [11]: 30.9%
- Calculated Mean Day of Survival [11]: 30.0 ± 3.7 days
- Extension of Mean Day of Survival over controls [11]: 16.7%
- Mean Tumor Weight at Day 14 [11]: 665 ± 103 mg
- Median Tumor Weight at Day 25 [11]: 1046 mg
- Number of Long Term Survivors [11]: 0/10
- Calculated Mean Day of Survival ([11]; listed as doxorubicin): 30 days
- mean tumor weight of all mice when terminated ([6]; 5 mg/kg Q7DX5): 967 mg
- Cancer Endpt. ([6]; 5 mg/kg Q7DX5): 0
- % Tumor Growth Inhibition D14 ([6]; 5 mg/kg i.v. Q7DX5): D14: 32 ± 16%
- Survivor (day 60) ([6]; 5 mg/kg i.v. Q7DX5): 1
- Tumor Weight D14 ([6]; 5 mg/kg i.v. Q7DX5): D14: 567 ± 77

Reference: patent US20050267016A1, “CD-10 activated prodrug compounds” (priority 2001, published 2005)
